From patent publication US20060111395A1, “Aryl-and heteroaryl-substituted tetrahydroisoquinolines and use thereof to block reuptake of norepinephrine, dopamine and serotonin” (AMR Technology, Inc., priority 2004, published 2006)

How the values were obtained:
[1] = cited from earlier work
[2] = test system: dopamine transporter protein over the norepinephrine transporter protein; conditions: selectivity for DAT over NET; cited from earlier work

For CN1Cc2c(N)cccc2C(c2ccccc2)C1 (stereo not drawn) [Nomofensine®], the “side effect of long term administration” value [1] is given as “fatal immune hemolytic anemia”.
For CN1Cc2cc(-c3ccoc3)ccc2C(c2ccccc2)C1 (stereo not drawn), the melting point was 188 to 189 °C (dec.).
In the case of COC(=O)C(c1ccccc1)C1CCCCN1 (stereo not drawn) [Methylphenidate], the “DAT/NET Ki ratio” value [2] is listed as 0.1.
